Experiment [1] deals with Green Peach Aphid (Myzus persicae, MYZUPE, GPA). As to the kind of experiment: Bioassay 1: green peach aphid, cabbage seedling foliar spray. The note with it: for Average % Control AI: 3 days. In kind it is in vivo. The procedure:
Bioassay 1: Green Peach Aphid (Myzus persicae, MYZUPE, “GPA”).
Stock solutions of F1 and various active ingredients were prepared initially at a concentration of 4 milligrams per milliliter (mg/mL) for F1 and 0.1 mg/mL for the active ingredients, respectively, using a 1:1 mixture of acetone:methanol as a diluent. Stock solutions were prepared with F1 as well as for each of the active ingredients individually. Test solutions were prepared from the stock solutions. Test solutions were prepared containing F1, the individual active ingredients, and mixtures of F1 with each of the active ingredients. The test solutions for F1 and the individual active ingredients were prepared by adding 750 microliters (μL) of stock solution to a 25 mL glass vial, then adding 750 μL of 1:1 acetone:methanol solvent, followed by the addition of 13.5 mL water with 0.025% Tween® 20 to create a 0.0005% (weight/volume (w/v)) solution. The test solutions containing mixtures of F1, and the individual active ingredients were prepared by adding 750 μL of the active ingredient stock solution to a 25 mL glass vial, followed by 750 μL of the F1 stock solution, then by the addition of 13.5 mL water with 0.025% Tween® 20 to create a test solution containing 0.0005% (w/v) F1 and 0.0005% (w/v) of the active ingredient. Each test solution was serially diluted to create desired doses of test solutions (0.0005% (w/v), 0.000125% (w/v), 0.00003125% (w/v), 0.0000078% (w/v), 0.00000195% (w/v), and 0.0000005% (w/v)). In test solutions containing mixtures of F1 and the active ingredients, the active ingredients were diluted as described above, but the concentration of F1 was held constant (0.04% (w/v)).
The test solutions were tested against GPA using the following procedure: cabbage seedlings, grown in 3-inch pots with 2-3 small (3-5 centimeter (cm)) true leaves, were used as test substrate. The seedlings were infested with 20-50 GPA (wingless adult and nymph stages) one day prior to chemical application. Four pots with individual seedlings were used for each treatment. A hand-held aspirator-type sprayer was used for spraying a solution to both sides of […] leaves until runoff. Reference plants (solvent check) were sprayed with the diluent only (0.025% Tween® 20 and 10% acetone:methanol (1:1) in water). Treated plants were held in a holding room for three days at approximately 25° C. and ambient relative humidity (RH about 20% to about 45%) prior to grading. Evaluation was conducted by counting the number of live aphids per plant under a microscope three days after treatment. Percent control was measured using Abbott's correction formula (W. S. Abbott, J. Econ. Entomol. 18 (1925), pp. 265-267) as follows:
where X=No. of live aphids on solvent check plants and Y=No. of live aphids on treated plants. In Table B1 the “Expected % Control” was calculated using the method described in Colby S. R., Weeds, 1967, 15, 20-22. Bioassay 2: Sweet Potato Whitefly (Bemisia tabaci, BEMITA, “SPW”).

Experiment [2] relates to Soybean Looper (Chrysodeixis includens, PSEPIN, SBL). Put plainly: Bioassay 4: soybean looper, artificial diet, 128-cell tray. In kind it is in vivo. The note with it: AI alone. Put shortly: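 Test solutions (0.0000004–0.04% w/v, i.e. 0.00005–5 μg/cm² on diet) were pipetted onto artificial lepidopteran diet and one 2nd-instar larva was placed per cell, 8 replicates per species, held at ~26° C. Live larvae were counted after 5 days; percent control used Abbott's correction against a solvent check.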

[3] abbreviates: AI alone at the rate of Wt Ratio F1:AI 1:40000 (F1 0.04).
[4] abbreviates: AI alone at the rate of Wt Ratio F1:AI 1:2564 (F1 0.04).
The mark [5] stands for this setting: AI alone at the rate of Wt Ratio F1:AI 1:640 (F1 0.04).

This note sets out measurements from patent publication US20260182575A1, “MOLECULES HAVING PESTICIDAL UTILITY AND INTERMEDIATES AND PROCESSES RELATED THERETO” (CORTEVA AGRISCIENCE LLC, priority 2022, published 2026).

Where “and” joins values, the source holds several entries; their conditions need not be identical. Identical values can stand only once.

On to `Cc1c(COC(=O)[C@@H]2[C@H](/C=C(\Cl)C(F)(F)F)C2(C)C)cccc1-c1ccccc1` (racemic) [Bifenthrin], for which the “Average % Control AI” value was 16.3% in experiment [1] (setting [3]), 0.0% in experiment [2] (0.000004 wt %) and 0.0% in experiment [2] (0.00004 wt %).

On to `C[C@]1(COC(=O)C2CC2)[C@@H]2C[C@H](O)[C@@]3(C)Oc4cc(-c5cccnc5)oc(=O)c4[C@H](O)[C@@H]3[C@@]2(C)CC[C@@H]1OC(=O)C1CC1` [Afidopyropen], for which the “Average % Control AI” value in experiment [2] (0.000004 wt %) and in experiment [2] (0.00004 wt %) was 0.0% each time.

Take `Cc1ccc(COCC(F)(F)F)c(N2C(=O)CS/C2=N\C(=O)Nc2ccc(-c3ncn(-c4ccc(OC(F)(F)F)cc4)n3)cc2F)c1` [F1]: the “Average % Control F1” value in experiment [1] (F1 alone, Wt % 0.04 (10^-6), cabbage spray, 3 days after treatment) is 8.8% and 7.1% and 15.8%.

Turning to `CON=CNC(=O)c1ccc(C2=NOC(c3cc(Cl)cc(Cl)c3)(C(F)(F)F)C2)cc1C` (centres unmarked) [Fluxametamide], the “Average % Control AI” value worked out at 23.1% in experiment [1] (setting [4]) and 12.5% in experiment [2] (0.000004 wt %).

Consider `COC(=O)N(C(=O)N1CO[C@@]2(C(=O)OC)Cc3cc(Cl)ccc3C2=N1)c1ccc(OC(F)(F)F)cc1` [Indoxacarb], for which the “Average % Control AI” value stood at 10.1% in experiment [1] (setting [5]), 0.0% in experiment [1] (setting [3]) and 0.0% in experiment [2] (0.000004 wt %).

Consider `CC1=NNC(=O)N(/N=C/c2cccnc2)C1` [Pymetrozine], for which the “Average % Control AI” value in experiment [1] (setting [5]) stood at 47.6%; in experiment [1] (setting [3]), 15.4%; in experiment [2] (0.000004 wt %) it was 12.5%.

For the compound `CN1COCN(Cc2cnc(Cl)s2)/C1=N\[N+](=O)[O-]` [Thiamethoxam], the “Average % Control AI” value in experiment [1] (AI alone at the rate of Wt Ratio F1:AI 1:10256 (F1 0.04)) came to 8.5%; in experiment [1] (setting [3]), 0.0%; in experiment [2] (0.000004 wt %), 0.0%.

On to Chlorfenapyr, for which the “Average % Control AI” value is reported as 10.1% in experiment [1] (setting [4]), 25.0% in experiment [2] (0.000004 wt %) and 37.5% in experiment [2] (0.00004 wt %).
